Reference: patent publication US5227163A, “Lice-repellant compositions” (priority 1992, dated 1993)
Where “and” joins values, the source holds several entries; their conditions need not be identical. Identical values can stand only once.

How the values were obtained:
human body lice [1] = test: In vivo test of lice repellency on rabbits (spray, gel, de cologne); design: species or system Pediculus humanus humanus (on New Zealand white rabbits); settings: 7 hours
human body lice [2] = test: as above; design: species or system Pediculus humanus humanus (on New Zealand white rabbits); settings: for % Repellency (Mean Values): Table 3; for Number of Lice (Out of 40) Found in the Treated Area: single experiments (a), (b), (c), listed as D.M.P.
Protocol: (§1) Body lice were reared in the laboratory by feeding them every 48 hours on rabbits. Lice were placed on the shaved abdomen of a white rabbit and left until they fed to satiety. Outside the host the lice were maintained at a temperature of 30 ±1° C., and relative humidity of 70±10%.
(§2) The abdomen of a New Zealand white rabbit was shaved and 100 μl of the test substance was evenly distributed over an area 2.5×5 cm. A glass cylinder 5 cm high with an internal diameter of 3.5 cm was placed on the rabbit's abdomen so that one half of it was covering the treated area and the other half the adjacent untreated area. 40 human body lice (Pediculus humanus humanus) (20 adults and 20 nymphs) which had been fed 24 hours previously were placed in the middle of the cylinder between the treated and untreated area, and the cylinder was covered with a dark cloth in order to keep the test area in the dark. The lice remained on the body of the rabbit for 5 minutes during which time over 95% of them had started feeding. The number of lice found on the treated area was then recorded and the specimen was photographed. Room temperature during the test was 20±3° C. For comparison to the tested samples, two controls were also tested: 70% Ethanol (Frutarom, C. P.) and 33% Dimethyl Phthalate (in 70% Ethanol).
The products were topically applied as a spray, lotion or gel on human hair and skin, to repel lice. The above procedure was carried out 1, 3, 5, and 24 hours after application of a test substance. Each substance was tested three times on three different rabbits on three different occasions.
(§3) % Repellency was calculated according to equation 1.
Where: A = Total Number of lice
n = Mean number of lice found in the treated area
(§4) According to Equation 1, when lice are evenly distributed between the treated and untreated areas (n=1/2 A), % Repellency=0, and when no lice are left in the treated area (n=0), % Repellency=100.

human lice = test: In vivo lice repellency on rabbits of shampoo and conditioner; design: species or system human lice (on rabbits); settings: for % Repellency (Mean Values): Table 5; for Number of Lice (Out of 40) Found in the Treated Area: three experiments, listed as D.M.P.
Protocol: as §1
as §2, with “Ethanol). […]” for “Ethanol).”
The efficacy of a shampoo and a hair-conditioner, aimed at repellency of human lice was examined in an in vivo procedure on rabbits. Each experiment included a terpenoid containing product and four controls: 70% Ethanol, Dimethyl phthalate, placebo shampoo and placebo conditioner. All experiments were repeated three times, and the results were consistent, as shown by Table 4.
as §3, §4

mosquito = settings: Hwang et al. 1985; Ruledge 1988; cited from earlier work
lice = test: Standard in vitro test on filter paper (petri-dish lice repellency); settings: 10 min, 20±3° C.
Protocol: Screening tests were performed on many substances of the following groups: terpenes (hydrocarbons), terpenoid alcohols, terpenoid esters, terpenoid aldehydes and ketones, essential oils which contain terpenoids and perfumes which contain terpenoids, as well as various general insect repellents, for lice-repellency. Each experiment included exposure of the lice to different concentrations of the tested substance, and measuring the dose response of those materials.
A petri-dish method was used to examine the repellency of the solutions for lice. A filter paper (Whatman No. 4, 5.5 cm in diameter) was secured in a petri-dish. A 100 μl portion of the test solution was placed on a corduroy patch (1.5 cm^2). The material was allowed to dry for 30 min. at room temperature (20±3° C.) and the patch was placed at the periphery of the petri-dish. A patch treated with a control solution (96% Ethanol) was placed on the opposite side of the dish. Twenty female lice which had been fed 24 hours previously were placed in the middle of the dish. A box was placed over the dish and it was covered with a dark cloth in order to keep the test area in the dark. The experiment was carried out at room temperature (20°±3° C.) and lasted 10 min. The number of lice on the treated and controlled patches as well as on the area between the patches was recorded in a protocol. The experiment was repeated three times for each sample.
% repellency was calculated by the following formula:
where: T=number of lice on the treated patch
C=number of lice on the untreated patch
The following terms were recorded:
RC80 =Concentration giving 80% repellency.
RC50 =Concentration giving 50% repellency.
RD80 =mg/cm^2 giving 80% repellency.
RD50 =mg/cm^2 giving 50% repellency.

Question: For `COC(=O)c1ccccc1C(=O)OC` [Dimethyl Phthalate], which “% Repellency (Mean Values)” value (human body lice [1]; Table 3) is on record?
Answer: The value was 26%.

Question: And the “Number of Lice (Out of 40) Found in the Treated Area” value (shortened to “Number of Lice (Out of 40) Found”) (human body lice [1]; single experiments (a), (b), (c), listed as D.M.P.)?
Answer: The value was 18 and 14 and 12.

Question: What about the “% Repellency (Mean Values)” value (human body lice [2]; 1 hour) of the same compound?
Answer: The value was 20%.

Question: And the “Number of Lice (Out of 40) Found” value (human body lice [2]; 1 hour)?
Answer: Its value is 21 and 12 and 15.

Question: What about the “% Repellency (Mean Values)” value (human body lice [2]; 3 hours) of the same compound?
Answer: Its value is 10%.

Question: And the “Number of Lice (Out of 40) Found” value (human body lice [2]; 3 hours)?
Answer: Its value is 16 and 18 and 20.

Question: What about the “% Repellency (Mean Values)” value (human body lice [2]; 5 hours) of the same compound?
Answer: Its value is 20%.

Question: And the “Number of Lice (Out of 40) Found” value (human body lice [2]; 5 hours)?
Answer: Its value is 16 and 14 and 18.

Question: And the “lice repellency in vivo, in words” value (human body lice [2]; rabbit, in vivo)?
Answer: Its value is “poor results”.

Question: And the “repellency against lice over the duration stated” value (human body lice [2]; range over at least 5 or 7 hours)?
Answer: Its value is 10-25%.

Question: And the “% Repellency (Mean Values)” value (human lice; 1 hour)?
Answer: The value was 20%.

Question: And the “Number of Lice (Out of 40) Found” value (human lice; 1 hour)?
Answer: The value was 21 and 12 and 15.

Question: And the “% Repellency (Mean Values)” value (human lice; 3 hours)?
Answer: Its value is 10%.

Question: What about the “Number of Lice (Out of 40) Found” value (human lice; 3 hours) of the same compound?
Answer: Its value is 16 and 18 and 20.

Question: And the “Number of Lice (Out of 40) Found” value (human lice; 4 hours)?
Answer: The value was 16 and 14 and 18.

Question: What about the “% Repellency (Mean Values)” value (human lice; 5 hours) of the same compound?
Answer: Its value is 20%.

Question: And the “% Repellency (Mean Values)” value (human lice; 7 hours)?
Answer: The value was 26%.

Question: What about the “Number of Lice (Out of 40) Found” value (human lice; 7 hours) of the same compound?
Answer: Its value is 18 and 14 and 12.

Question: For `CC1=CCC(C(C)(C)O)CC1` (stereo not drawn) [α-TERPINEOL, α-terpineol], which “mosquito repellency, in words” value (mosquito) is on record?
Answer: Its value is “useful in mosquito repellent”.

Question: What about the “RC50 (Concentration giving 50% repellency)” value (lice) of the same compound?
Answer: The value was 0.040%.

Question: And the “RC80 (Concentration giving 80% repellency)” value (lice)?
Answer: The value was 0.080%.

Question: And the “RD80 (mg/cm^2 giving 80% repellency)” value (lice)?
Answer: The value was 0.056 mg/cm^2.
